Source: patent US9751888B2, “Heterocyclic compounds and uses thereof” (Infinity Pharmaceuticals, Inc., priority 2013, dated 2017)

Assays:
[1] = biological target: human Class I PI3 kinase β (Homo sapiens (Human), UniProt P42338); assay: PI3-Kinase Promega ADP-Glo Max assay, β isoform; type: biochemical; details: 40 nM kinase, 3 mM ATP, 500 uM diC8-PtdInsP; read-out: Promega β PI3K IC50
[2] = biological target: human Class I PI3 kinase α (Homo sapiens (Human), UniProt P42336); assay: PI3-Kinase Promega ADP-Glo Max assay, α isoform; type: biochemical; details: 20 nM kinase, 3 mM ATP, 500 uM diC8-PtdInsP; read-out: Promega α PI3K IC50
[3] = biological target: human Class I PI3 kinase δ (Homo sapiens (Human), UniProt O00329); assay: PI3-Kinase Promega ADP-Glo Max assay, δ isoform; type: biochemical; details: 20 nM kinase, 3 mM ATP, 500 uM diC8-PtdInsP; read-out: Promega δ PI3K IC50
Chain of human Class I PI3 kinase δ (O00329 whole entry, canonical isoform): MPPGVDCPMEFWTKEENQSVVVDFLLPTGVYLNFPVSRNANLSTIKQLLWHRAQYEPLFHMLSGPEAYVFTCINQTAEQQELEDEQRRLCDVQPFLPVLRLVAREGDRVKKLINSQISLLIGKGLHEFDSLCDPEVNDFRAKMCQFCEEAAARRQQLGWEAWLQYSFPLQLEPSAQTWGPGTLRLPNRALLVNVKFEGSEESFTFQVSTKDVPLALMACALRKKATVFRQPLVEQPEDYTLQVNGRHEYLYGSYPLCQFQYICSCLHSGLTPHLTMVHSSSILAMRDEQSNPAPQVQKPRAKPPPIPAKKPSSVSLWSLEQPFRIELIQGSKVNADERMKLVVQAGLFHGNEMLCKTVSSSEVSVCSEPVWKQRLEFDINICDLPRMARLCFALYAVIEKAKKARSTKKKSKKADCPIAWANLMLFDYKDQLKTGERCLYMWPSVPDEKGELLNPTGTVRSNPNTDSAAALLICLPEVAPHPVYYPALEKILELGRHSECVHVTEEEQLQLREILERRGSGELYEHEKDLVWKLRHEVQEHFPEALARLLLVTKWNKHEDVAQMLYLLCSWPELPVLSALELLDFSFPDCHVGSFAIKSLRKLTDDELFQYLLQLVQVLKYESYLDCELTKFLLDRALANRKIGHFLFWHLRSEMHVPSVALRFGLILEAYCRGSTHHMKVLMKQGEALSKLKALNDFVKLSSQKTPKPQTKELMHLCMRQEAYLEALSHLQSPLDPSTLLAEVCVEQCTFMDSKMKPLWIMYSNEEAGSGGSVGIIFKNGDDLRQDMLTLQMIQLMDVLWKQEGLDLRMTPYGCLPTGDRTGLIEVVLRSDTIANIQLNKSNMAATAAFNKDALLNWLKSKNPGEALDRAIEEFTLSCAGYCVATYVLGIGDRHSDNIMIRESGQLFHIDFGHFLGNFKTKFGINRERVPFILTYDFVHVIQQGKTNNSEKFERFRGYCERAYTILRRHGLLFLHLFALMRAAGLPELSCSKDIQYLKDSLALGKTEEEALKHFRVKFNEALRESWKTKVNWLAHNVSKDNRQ
Chain of human Class I PI3 kinase δ (P27986 whole entry partner, canonical isoform): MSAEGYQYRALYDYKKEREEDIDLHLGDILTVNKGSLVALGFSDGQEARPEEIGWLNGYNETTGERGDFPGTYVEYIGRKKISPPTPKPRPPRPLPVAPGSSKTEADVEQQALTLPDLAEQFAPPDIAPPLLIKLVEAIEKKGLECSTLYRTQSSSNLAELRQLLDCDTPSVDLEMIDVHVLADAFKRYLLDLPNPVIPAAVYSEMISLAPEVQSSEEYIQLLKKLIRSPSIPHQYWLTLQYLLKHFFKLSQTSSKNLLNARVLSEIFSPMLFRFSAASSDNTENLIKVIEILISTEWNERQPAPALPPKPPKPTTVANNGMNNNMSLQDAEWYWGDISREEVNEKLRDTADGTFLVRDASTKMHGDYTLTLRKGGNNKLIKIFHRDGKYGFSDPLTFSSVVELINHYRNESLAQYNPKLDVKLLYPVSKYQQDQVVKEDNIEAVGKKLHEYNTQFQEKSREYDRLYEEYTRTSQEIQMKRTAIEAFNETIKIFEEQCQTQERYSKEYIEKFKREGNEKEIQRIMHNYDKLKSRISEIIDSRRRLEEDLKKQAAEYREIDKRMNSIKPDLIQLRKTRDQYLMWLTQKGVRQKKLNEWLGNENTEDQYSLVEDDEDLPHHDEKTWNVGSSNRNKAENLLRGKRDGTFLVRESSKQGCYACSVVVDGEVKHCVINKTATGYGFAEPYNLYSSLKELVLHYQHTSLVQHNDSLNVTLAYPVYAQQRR

[4] = biological target: human Class I PI3 kinase γ (Homo sapiens (Human), UniProt P48736); assay: PI3-Kinase Promega ADP-Glo Max assay, γ isoform; type: biochemical; details: 40 nM kinase, 3 mM ATP, 500 uM diC8-PtdInsP; read-out: Promega γ PI3K IC50
Chain of human Class I PI3 kinase γ (P48736 whole entry, canonical isoform): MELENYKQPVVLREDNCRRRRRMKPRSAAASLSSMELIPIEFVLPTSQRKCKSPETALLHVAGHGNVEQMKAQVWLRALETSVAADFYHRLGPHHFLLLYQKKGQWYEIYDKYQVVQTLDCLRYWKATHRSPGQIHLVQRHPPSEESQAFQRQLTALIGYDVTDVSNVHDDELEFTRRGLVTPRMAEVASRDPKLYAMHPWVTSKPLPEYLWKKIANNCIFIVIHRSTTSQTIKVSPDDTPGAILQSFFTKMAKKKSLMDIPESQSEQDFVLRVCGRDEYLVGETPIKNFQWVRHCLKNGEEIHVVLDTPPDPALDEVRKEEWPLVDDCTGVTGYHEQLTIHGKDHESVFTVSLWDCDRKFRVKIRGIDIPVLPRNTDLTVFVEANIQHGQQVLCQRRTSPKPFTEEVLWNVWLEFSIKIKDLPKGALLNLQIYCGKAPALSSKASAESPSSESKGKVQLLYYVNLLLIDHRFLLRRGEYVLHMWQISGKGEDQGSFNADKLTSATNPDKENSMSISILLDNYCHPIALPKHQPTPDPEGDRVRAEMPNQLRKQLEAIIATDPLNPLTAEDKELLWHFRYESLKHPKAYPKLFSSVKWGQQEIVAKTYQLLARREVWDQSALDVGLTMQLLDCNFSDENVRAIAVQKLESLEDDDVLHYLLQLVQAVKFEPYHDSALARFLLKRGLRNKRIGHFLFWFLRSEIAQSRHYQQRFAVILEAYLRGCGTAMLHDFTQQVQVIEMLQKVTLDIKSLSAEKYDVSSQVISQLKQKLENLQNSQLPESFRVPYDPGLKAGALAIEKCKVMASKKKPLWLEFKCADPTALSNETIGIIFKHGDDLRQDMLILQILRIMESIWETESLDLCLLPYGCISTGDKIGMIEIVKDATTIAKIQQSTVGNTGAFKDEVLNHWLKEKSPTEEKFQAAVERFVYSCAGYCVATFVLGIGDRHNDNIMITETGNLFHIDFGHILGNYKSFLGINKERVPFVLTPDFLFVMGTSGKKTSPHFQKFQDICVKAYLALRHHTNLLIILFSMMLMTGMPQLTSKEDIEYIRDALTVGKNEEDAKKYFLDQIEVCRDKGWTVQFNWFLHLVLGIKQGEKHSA
Experimental: Promega ADP-Glo Max assay kit (Cat. No. V7002) was utilized to determine IC50 values for α, β, δ and γ isoforms of human Class I PI3 kinases (Millipore). Samples of kinase (20 nM α or δ, 40 nM β or γ isoform) were incubated with compound for 15 minutes at room temperature in reaction buffer (15 mM HEPES pH 7.4, 20 mM NaCl, 1 mM EGTA, 0.02% Tween 20, 10 mM MgCl2, 0.2 mg/mL bovine-γ-globulins) followed by addition of ATP/diC8-PtdInsP mixture to give final concentrations of 3 mM ATP and 500 uM diC8-PtdInsP. Reactions were incubated at room temperature for 2 hours followed by addition of 25 uL of stop solution. After a 40-minute incubation at room temperature, 50 uL of Promega detection mix was added followed by incubation for 1 hour at room temperature. Plates were then read on Envision plate reader in luminescence mode. Data was converted to % inhibition using the following equation below:
[formula] where S is the sample luminescence, Pos is a positive control without added PI3K, Neg is the negative control without added compound. Data was then plotted as % inhibition vs compound concentration.
Certain compounds provided herein were tested in PI3-Kinase Promega Assay using procedures as described above to determine IC50 values for α, β, δ and/or γ isoforms.

p110 δ (RAJI cells) = p110 δ (RAJI cells) (Homo sapiens (Human), UniProt O00329); assay: PI3K-δ selective cellular assay: phospho-AKT in anti-human IgM stimulated RAJI cells; type: cell-based; details: serum-starved RAJI cells stimulated with anti-human IgM
Chain of p110 δ (RAJI cells) (O00329 whole entry): as the sequence (O00329 whole entry, canonical isoform) above
Chain of p110 δ (RAJI cells) (P27986 whole entry partner): as the sequence (P27986 whole entry partner, canonical isoform) above
From the text: A compound's ability in selectively inhibiting PI3K-δ can be assessed using RAJI cells, i.e., B lymphocyte cells derived from lymphoma patients. Briefly, serum-starved RAJI cells are stimulated with anti-human IgM, thereby causing signaling through the B-cell receptors, as described in, for example, He et al., Leukemia Research (2009) 33: 798-802. B-cell receptor signaling is important for the activation, differentiation, and survival of B cells and certain B-cell derived cancers. Reduction of phospho-AKT is indicative of compounds that may inhibit B-cell proliferation and function in certain diseases. […] Certain compounds provided herein were tested in RAJI cell model using procedures as described above.

p110 γ (RAW264.7 cells) = p110 γ (RAW264.7 cells) (Mus musculus (Mouse), UniProt Q9JHG7); assay: PI3K-γ selective cellular assay: phospho-AKT in C5a stimulated RAW264.7 macrophages; type: cell-based; details: serum-starved RAW264.7 cells stimulated with C5a
Experimental: Certain compounds provided herein were tested in RAW 264.7 cell model using procedures as described above.

Chain of human Class I PI3 kinase β (P42338 whole entry, looked up, canonical isoform): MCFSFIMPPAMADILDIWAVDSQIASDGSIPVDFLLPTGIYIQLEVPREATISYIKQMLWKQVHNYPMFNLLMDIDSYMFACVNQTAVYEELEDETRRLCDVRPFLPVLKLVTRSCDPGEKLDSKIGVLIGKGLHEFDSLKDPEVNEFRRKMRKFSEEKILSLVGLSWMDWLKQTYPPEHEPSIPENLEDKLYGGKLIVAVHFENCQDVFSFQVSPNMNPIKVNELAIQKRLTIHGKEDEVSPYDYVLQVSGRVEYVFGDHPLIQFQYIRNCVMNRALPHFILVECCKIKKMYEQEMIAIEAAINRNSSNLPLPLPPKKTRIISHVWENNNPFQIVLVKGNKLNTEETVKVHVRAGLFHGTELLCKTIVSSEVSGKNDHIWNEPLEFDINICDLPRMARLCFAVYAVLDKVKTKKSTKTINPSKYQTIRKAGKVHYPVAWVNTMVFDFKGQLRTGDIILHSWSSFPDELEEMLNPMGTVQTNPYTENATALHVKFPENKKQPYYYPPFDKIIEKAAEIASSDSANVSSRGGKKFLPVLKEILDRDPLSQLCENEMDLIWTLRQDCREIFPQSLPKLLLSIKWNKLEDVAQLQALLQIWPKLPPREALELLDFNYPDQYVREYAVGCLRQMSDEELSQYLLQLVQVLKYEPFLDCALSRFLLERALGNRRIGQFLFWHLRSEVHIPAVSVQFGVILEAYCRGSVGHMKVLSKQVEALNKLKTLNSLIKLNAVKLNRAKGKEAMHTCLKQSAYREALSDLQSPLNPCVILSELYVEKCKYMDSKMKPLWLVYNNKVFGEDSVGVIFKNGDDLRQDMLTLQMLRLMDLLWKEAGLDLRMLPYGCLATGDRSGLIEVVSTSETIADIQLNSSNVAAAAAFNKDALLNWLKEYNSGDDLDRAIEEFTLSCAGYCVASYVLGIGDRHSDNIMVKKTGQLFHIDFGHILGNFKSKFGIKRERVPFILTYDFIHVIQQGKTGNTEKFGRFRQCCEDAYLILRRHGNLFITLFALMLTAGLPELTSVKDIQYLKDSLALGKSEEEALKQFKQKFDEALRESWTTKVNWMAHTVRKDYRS
Chain of human Class I PI3 kinase β (P27986 whole entry partner, looked up, canonical isoform): as the sequence (P27986 whole entry partner, canonical isoform) above

| IC50 [1] | IC50 [2] | IC50 [3] | IC50 [4] | IC50 (p110 δ (RAJI cells)) | IC50 (p110 γ (RAW264.7 cells)) | SMILES |
| --- | --- | --- | --- | --- | --- | --- |
| 1 to 10 µM | 1 to 10 µM | 1 to 10 µM | 1 to 10 µM | – | – | C[C@H](NC(=O)c1nc(C2CC2)cnc1N)c1cc2cccc(Cl)c2c(=O)n1-c1ccccc1 [Compound 3] |
| 1 to 10 µM | 1 to 10 µM | 1 to 10 µM | 0.1 to 0.5 µM | 0.1 to 0.5 µM | 0.01 to 0.1 µM | CCn1cc(-c2cccc3cc([C@H](C)NC(=O)c4c(N)nn5cccnc45)n(-c4ccccc4)c(=O)c23)cn1 [Compound 5] |
| 0.5 to 1 µM | 1 to 10 µM | 1 to 10 µM | 0.01 to 0.1 µM | 0.01 to 0.1 µM | 0.1 to 0.5 µM | C[C@H](NC(=O)c1c(N)nn2cccnc12)c1cc2cccc(Cl)c2c(=O)n1CCNS(C)(=O)=O [Compound 13] |
| 1 to 10 µM | 1 to 10 µM | 1 to 10 µM | 1 to 10 µM | 0.01 to 0.1 µM | 0.1 to 0.5 µM | C[C@H](NC(=O)c1c(N)nn2cccnc12)c1cc2cccc(Cl)c2c(=O)n1CCc1ccccc1 [Compound 15] |
| 1 to 10 µM | 1 to 10 µM | 1 to 10 µM | 0.01 to 0.1 µM | 1 to 10 µM | 0.5 to 1 µM | C[C@H](NC(=O)c1c(N)nn2cccnc12)c1cc2cccc(Cl)c2c(=O)n1CCc1nnn[nH]1 [Compound 16] |
| 1 to 10 µM | 1 to 10 µM | 1 to 10 µM | 0.1 to 0.5 µM | 1 to 10 µM | 0.5 to 1 µM | C[C@H](NC(=O)c1c(N)nn2cccnc12)c1cc2cccc(Cl)c2c(=O)n1Cc1nnn[nH]1 [Compound 17] |
| 1 to 10 µM | 1 to 10 µM | 1 to 10 µM | 1 to 10 µM | 0.01 to 0.1 µM | 0.1 to 0.5 µM | Cc1noc(CCn2c([C@H](C)NC(=O)c3c(N)nn4cccnc34)cc3cccc(Cl)c3c2=O)n1 [Compound 18] |
| 0.1 to 0.5 µM | 1 to 10 µM | 1 to 10 µM | 0.01 to 0.1 µM | 0.01 to 0.1 µM | 0.01 to 0.1 µM | C[C@H](NC(=O)c1c(N)nn2cccnc12)c1cc2cccc(Cl)c2c(=O)n1CCS(N)(=O)=O [Compound 19] |
| 0.5 to 1 µM | 1 to 10 µM | 1 to 10 µM | 0.5 to 1 µM | 0.01 to 0.1 µM | 1 to 10 µM | C[C@H](NC(=O)c1c(N)nn2cccnc12)c1cc2cccc(Cl)c2c(=O)n1CCc1ncn[nH]1 [Compound 20] |
| 0.1 to 0.5 µM | 1 to 10 µM | 1 to 10 µM | 1 to 10 µM | – | – | C[C@H](NC(=O)c1c(N)nn2cccnc12)c1cc2cccc(Cl)c2c(=O)n1CCc1c[nH]cn1 [Compound 21] |
| 1 to 10 µM | 1 to 10 µM | 0.1 to 0.5 µM | 0.01 to 0.1 µM | 0.001 to 0.01 µM | 0.001 to 0.01 µM | C[C@H](NC(=O)c1c(N)ncn2ccnc12)c1cc2cccc(Cl)c2c(=O)n1-c1ccccc1 [Compound 43] |
| 1 to 10 µM | 1 to 10 µM | 1 to 10 µM | 0.01 to 0.1 µM | 0.01 to 0.1 µM | 0.001 to 0.01 µM | C[C@H](NC(=O)c1c(N)nn2cccnc12)c1nc2cccc(Cl)c2c(=O)n1-c1ccc(F)cc1 [Compound 45] |
| 1 to 10 µM | 1 to 10 µM | 1 to 10 µM | 0.1 to 0.5 µM | 0.001 to 0.01 µM | 0.01 to 0.1 µM | C[C@H](NC(=O)c1nccnc1N)c1nc2cccc(Cl)c2c(=O)n1-c1ccc(F)cc1 [Compound 46] |
| 1 to 10 µM | 1 to 10 µM | 1 to 10 µM | 0.1 to 0.5 µM | 0.1 to 0.5 µM | 0.01 to 0.1 µM | C[C@H](NC(=O)c1c(N)nn2cccnc12)c1cc2cccc(-c3cnn(CC#N)c3)c2c(=O)n1-c1ccccc1 [Compound 48] |
| 1 to 10 µM | 1 to 10 µM | 1 to 10 µM | 0.1 to 0.5 µM | 0.1 to 0.5 µM | 0.01 to 0.1 µM | C[C@H](NC(=O)c1c(N)nn2cccnc12)c1cc2cccc(-c3cnn(CC(F)(F)F)c3)c2c(=O)n1-c1ccccc1 [Compound 50] |
| 1 to 10 µM | 1 to 10 µM | 0.5 to 1 µM | 0.5 to 1 µM | 0.01 to 0.1 µM | 0.01 to 0.1 µM | C[C@H](NC(=O)c1nccnc1N)c1cc2cccc(C(F)(F)F)c2c(=O)n1-c1ccccc1 [Compound 52] |
| 0.01 to 0.1 µM | 0.5 to 1 µM | 0.1 to 0.5 µM | 0.01 to 0.1 µM | 0.001 to 0.01 µM | 0.1 to 0.5 µM | C[C@H](NC(=O)c1c(N)nn2cccnc12)c1cc2cccc(Cl)c2c(=O)n1CCCNS(C)(=O)=O [Compound 53] |
| 0.1 to 0.5 µM | 1 to 10 µM | 0.1 to 0.5 µM | 0.01 to 0.1 µM | 0.01 to 0.1 µM | 0.01 to 0.1 µM | CNS(=O)(=O)CCn1c([C@H](C)NC(=O)c2c(N)nn3cccnc23)cc2cccc(Cl)c2c1=O [Compound 54] |
| 0.1 to 0.5 µM | 1 to 10 µM | 1 to 10 µM | 0.1 to 0.5 µM | 0.01 to 0.1 µM | 0.1 to 0.5 µM | C[C@H](NC(=O)c1c(N)nn2cccnc12)c1cc2cccc(Cl)c2c(=O)n1CCc1nnnn1C [Compound 55] |
| 0.5 to 1 µM | 1 to 10 µM | 1 to 10 µM | 1 to 10 µM | 0.01 to 0.1 µM | 0.1 to 0.5 µM | C[C@H](NC(=O)c1c(N)nn2cccnc12)c1cc2cccc(Cl)c2c(=O)n1CCc1nnn(C)n1 [Compound 56] |
| 0.1 to 0.5 µM | 1 to 10 µM | 1 to 10 µM | 0.1 to 0.5 µM | 0.1 to 0.5 µM | 0.1 to 0.5 µM | C[C@H](NC(=O)c1c(N)nn2cccnc12)c1cc2cccc(Cl)c2c(=O)n1CCCS(C)(=O)=O [Compound 57] |
| 0.5 to 1 µM | 0.5 to 1 µM | 0.1 to 0.5 µM | 0.01 to 0.1 µM | 0.01 to 0.1 µM | 0.001 to 0.01 µM | C[C@H](NC(=O)c1c(N)nn2cccnc12)c1cc2cccc(Cl)c2c(=O)n1CCS(=O)(=O)N(C)C [Compound 58] |
| 0.1 to 0.5 µM | 1 to 10 µM | 0.1 to 0.5 µM | 0.01 to 0.1 µM | 0.01 to 0.1 µM | 0.1 to 0.5 µM | CCS(=O)(=O)NCCn1c([C@H](C)NC(=O)c2c(N)nn3cccnc23)cc2cccc(Cl)c2c1=O [Compound 61] |
| 0.5 to 1 µM | 1 to 10 µM | 1 to 10 µM | 0.5 to 1 µM | 0.1 to 0.5 µM | 0.01 to 0.1 µM | C#CCCn1c([C@H](C)NC(=O)c2c(N)nn3cccnc23)cc2cccc(Cl)c2c1=O [Compound 62] |
| 0.1 to 0.5 µM | 1 to 10 µM | 1 to 10 µM | 0.5 to 1 µM | 0.1 to 0.5 µM | 0.5 to 1 µM | C[C@H](NC(=O)c1c(N)nn2cccnc12)c1cc2cccc(Cl)c2c(=O)n1CCc1cnn[nH]1 [Compound 63] |
| 1 to 10 µM | 1 to 10 µM | 1 to 10 µM | 1 to 10 µM | 0.1 to 0.5 µM | 0.1 to 0.5 µM | C[C@H](NC(=O)c1c(N)nn2cccnc12)c1cc2cccc(Cl)c2c(=O)n1CCc1noc(C(C)(C)C)n1 [Compound 64] |
| 1 to 10 µM | 1 to 10 µM | 1 to 10 µM | 1 to 10 µM | 0.1 to 0.5 µM | 0.01 to 0.1 µM | CC(C)C(=O)Cc1cccc2cc([C@H](C)NC(=O)c3c(N)nn4cccnc34)n(-c3ccccc3)c(=O)c12 [Compound 65] |
| – | – | – | 0.5 to 1 µM | 0.01 to 0.1 µM | 0.001 to 0.01 µM | C[C@H](NC(=O)c1c(N)nn2cccnc12)c1cc2cccc(CCc3cnn(C)c3)c2c(=O)n1-c1ccccc1 [Compound 66] |
| 1 to 10 µM | 1 to 10 µM | 1 to 10 µM | 1 to 10 µM | – | – | C[C@H](NC(=O)c1c(N)nn2cccnc12)c1nc2ccc(Cl)cc2c(=O)n1-c1ccccc1 [Compound 88] |
| 1 to 10 µM | 1 to 10 µM | 1 to 10 µM | 1 to 10 µM | – | – | C[C@H](NC(=O)c1nccnc1N)c1oc2ccc(F)cc2c(=O)c1-c1ccccc1 [Compound 97] |
